Experimental data: paper PMC5905968, “Evaluation of the fusion inhibitor P3 peptide as a potential microbicide to prevent HIV transmission in women” (PLoS ONE, 2018)

How the values were obtained:
[1] = tested on: vaginal epithelium of BALB/c mice; assay: BALB/c mice vaginal irritation test with histological score; type: in vivo; parameters: key to Epithelial lesion / Inflammatory infiltrate / Vascular congestion / Edema/fibrosis / Total Score: 0 (no change) when no injury or the observed changes were within normal range; 1 (minimum) when changes were sparse but exceeded those considered normal; 2 (light) when injuries were identifiable but with no severity; 3 (moderate) for significant injury that could increase in severity; 4 (very serious) for very serious injuries that occupy most of the analyzed tissue; details: for Edema/fibrosis / Epithelial lesion / Inflammatory infiltrate / Vascular congestion / Total Score: 7 days; for Total Score: sum of the four lesion scores
Protocol: Female BALB/c mice (6–8 weeks-old) (Charles River Laboratories, Wilmington, MA) were pretreated subcutaneously with 2mg of medroxyprogesterone acetate (Depo-Provera; Pfizer, NY, USA) in PBS (Lonza, Verviers, Belgium). After five days, 30μl of test formulation with different doses of P3 diluted in PBS was applied intravaginally daily for 7 days by vaginal gavage to animals previously anesthetized with isoflurane (Forane, Abbott, Madrid). Controls included mice that received PBS (placebo group) and 3% nonoxynol-9 (N9) in PBS (irritation control group). On the eighth day, mice were sacrificed and genital tract tissue were extracted and fixed in 4% paraformaldehyde for histological analysis. The animals were distributed in groups of three mice each: group placebo only treated with PBS (1–3), group A treated with dose of 0.06mg/day ([…]) of P3 in PBS (4–6), group B treated with dose of 0.2mg/day (1522.7 μM) of P3 in PBS (7–9), group C treated with dose of 0.4mg/day (3045.3 μM) of P3 in PBS (10–12) and group irritation control treated with 3% N9 in PBS (13–15).
The presence of histological lesions in the mouse vaginas was evaluated with hematoxylin-eosin staining. Samples were embedded in paraffin by submersion in increasing concentrations of ethanol in water (Rectapur, VWR, England), two baths of xylene (Analar (VWR, England) and another of paraffin, before being placed in a paraffin mold. Subsequently, they were cut using a semimotorized microtome (RM2145 Leica, Germany) and processed for staining. For dewaxing, samples were submersed into two baths of xylene solution (10 min) and three baths in descending order of ethanol (100%, 90% and 70%) (5 min), before being stained with hematoxylin (Merck, Germany) for 5 min and eosin (Merck, Germany) for another 5 min. Post-eosin staining dehydration was performed with passages in increasing concentrations of ethanol (70%, 90% and 100%) and a bath of xylene solution. Finally, they were mounted with D.P.X. (Prolabo, VWR, Spain).
The existence of injury in vaginal epithelium, inflammatory infiltrate, vascular congestion and/or edema in the submucosa was evaluated in each biological sample. The values (score) assigned for each of these lesions were: 0 (no change) when no injury or the observed changes were within normal range; 1 (minimum) when changes were sparse but exceeded those considered normal; 2 (light) when injuries were identifiable but with no severity; 3 (moderate) for significant injury that could increase in severity; 4 (very serious) for very serious injuries that occupy most of the analyzed tissue. These values were added up and determined the level of vaginal irritation as minimum 1–4, average 5–8, moderate 9–11 and severe 12–16 [34].

E. coli ATCC 10536 = assay: Anti-bacterial activity, MIC by agar diffusion; type: cell-based; details: disks, Mueller-Hinton agar, 37°C, maximum concentration tested 228.4 μM
Protocol: (§1) Anti-bacterial activity of P3 was determined according to CLSI guidelines. The following bacteria were used: reference strains E. coli ATCC 10536, Staphylococcus aureus ATCC 6538, Bacillus subtilis ATCC 6633 and Enterococcus faecalis ATCC 29212; clinical strains of E. coli and Pseudomonas aeruginosa isolated in our laboratory; and strains of Lactobacillus rhamnosus and Lactobacillus plantarum also isolated in our laboratory. The Minimum Inhibitory Concentration (MIC) was determined by the agar diffusion method, in plates of Mueller-Hinton agar or Rogosa agar (for Lactobacilli). Briefly, 10^8cfu/ml bacterial suspensions were prepared in sterile water and spread in the culture media. Sterile disks containing different concentrations of P3 were placed on the inoculated surface. Plates were incubated at 37°C for 24h or 48h. Lactobacilli were incubated at microaerophilic conditions. A negative control made of sterile water was used. Disks of amoxicillin and imipenem were used as positive controls.

Lactobacillus plantarum = assay: Anti-bacterial activity, MIC by agar diffusion; type: cell-based; details: disks, Rogosa agar, 37°C, microaerophilic, maximum concentration tested 228.4 μM
Protocol: as §1

[2] = tested on: Enterococcus faecalis ATCC 29212; assay: Anti-bacterial activity, MIC by agar diffusion; type: cell-based; details: disks, Mueller-Hinton agar, 37°C, maximum concentration tested 228.4 μM
Protocol: as §1

[3] = tested on: Staphylococcus aureus ATCC 6538; assay: Anti-bacterial activity, MIC by agar diffusion; type: cell-based; details: disks, Mueller-Hinton agar, 37°C, maximum concentration tested 228.4 μM
Protocol: as §1

Lactobacillus rhamnosus = assay: Anti-bacterial activity, MIC by agar diffusion; type: cell-based; details: disks, Rogosa agar, 37°C, microaerophilic, maximum concentration tested 228.4 μM
Protocol: as §1

[4] = tested on: Bacillus subtilis ATCC 6633; assay: Anti-bacterial activity, MIC by agar diffusion; type: cell-based; details: disks, Mueller-Hinton agar, 37°C, maximum concentration tested 228.4 μM
Protocol: as §1

[5] = tested on: Pseudomonas aeruginosa (clinical strain); assay: Anti-bacterial activity, MIC by agar diffusion; type: cell-based; details: disks, Mueller-Hinton agar, 37°C, maximum concentration tested 228.4 μM
Protocol: as §1

[6] = tested on: E. coli (clinical strain); assay: Anti-bacterial activity, MIC by agar diffusion; type: cell-based; details: disks, Mueller-Hinton agar, 37°C, maximum concentration tested 228.4 μM
Protocol: as §1

[7] = 456 μM/day P3 in PBS intravaginally, mouse 4
[8] = 456 μM/day P3 in PBS intravaginally, mouse 5
[9] = 456 μM/day P3 in PBS intravaginally, mouse 6
[10] = 1522.7 μM/day P3 in PBS intravaginally, mouse 7
[11] = 1522.7 μM/day P3 in PBS intravaginally, mouse 8
[12] = 1522.7 μM/day P3 in PBS intravaginally, mouse 9
[13] = 3045.3 μM/day P3 in PBS intravaginally, mouse 10
[14] = 3045.3 μM/day P3 in PBS intravaginally, mouse 11
[15] = 3045.3 μM/day P3 in PBS intravaginally, mouse 12

CC[C@H](C)[C@H](NC(=O)[C@H](CC(N)=O)NC(=O)[C@H](C)NC(=O)[C@H](CCC(=O)O)NC(=O)[C@H](CC(C)C)NC(=O)[C@H](Cc1ccc(O)cc1)NC(=O)[C@H](CCCNC(=N)N)NC(=O)[C@@H](NC(=O)[C@H](CCC(N)=O)NC(=O)[C@H](CCC(N)=O)NC(=O)[C@H](CCC(=O)O)NC(=O)[C@H](Cc1c[nH]c2ccccc12)NC(=O)[C@H](CCC(=O)O)NC(=O)[C@H](CCC(N)=O)NC(=O)[C@H](Cc1c[nH]c2ccccc12)NC(C)=O)C(C)C)C(=O)N[C@@H](CO)C(=O)N[C@@H](CCC(N)=O)C(=O)N[C@@H](CCCNC(=N)N)C(=O)N[C@@H](CC(C)C)C(=O)N[C@@H](CCC(=O)O)C(=O)N[C@@H](CCC(N)=O)C(=O)N[C@@H](C)C(=O)N[C@@H](CCC(N)=O)C(=O)N[C@H](C(=O)N[C@@H](CCC(N)=O)C(=O)N[C@@H](CCC(N)=O)C(=O)N[C@@H](CCC(=O)O)C(=O)N[C@@H](CCCCN)C(=O)N[C@@H](CC(N)=O)C(=O)N[C@@H](CCSC)C(=O)N[C@@H](Cc1ccc(O)cc1)C(=O)N[C@@H](CCC(=O)O)C(=O)N[C@@H](CC(C)C)C(=O)N[C@@H](CCC(N)=O)C(N)=O)[C@@H](C)CC [P3] was tested, and the Edema/fibrosis [1, 7] was 0, the Epithelial lesion [1, 7] was 1 and the Inflammatory infiltrate [1, 7] was 0. For the same molecule, the Vascular congestion [1, 7] was 1, the “Total Score” value [1, 7] was 2 and the Edema/fibrosis [1, 8] was 1. It also gave an Epithelial lesion [1, 8] of 1, an Inflammatory infiltrate [1, 8] of 1 and a Vascular congestion [1, 8] of 0. For the same molecule, the “Total Score” value [1, 8] was 3, the Edema/fibrosis [1, 9] was 0 and the Epithelial lesion [1, 9] was 0. The Inflammatory infiltrate [1, 9] was 0, the Vascular congestion [1, 9] was 0 and the “Total Score” value [1, 9] was 0. For the same molecule, the Edema/fibrosis [1, 10] was 0, the Epithelial lesion [1, 10] was 1 and the Inflammatory infiltrate [1, 10] was 1. For the same molecule, the Vascular congestion [1, 10] was 1, the “Total Score” value [1, 10] was 3 and the Edema/fibrosis [1, 11] was 0. The Epithelial lesion [1, 11] was 0, the Inflammatory infiltrate [1, 11] was 0 and the Vascular congestion [1, 11] was 1. The “Total Score” value [1, 11] was 1, the Edema/fibrosis [1, 12] was 0 and the Epithelial lesion [1, 12] was 0. The Inflammatory infiltrate [1, 12] was 2, the Vascular congestion [1, 12] was 2 and the “Total Score” value [1, 12] was 4. The Edema/fibrosis [1, 13] was 0, the Epithelial lesion [1, 13] was 4 and the Inflammatory infiltrate [1, 13] was 3. The Vascular congestion [1, 13] was 3, the Edema/fibrosis [1, 14] was 0 and the Epithelial lesion [1, 14] was 2. The Inflammatory infiltrate [1, 14] was 0, the Vascular congestion [1, 14] was 1 and the “Total Score” value [1, 14] was 3. For the same molecule, the Edema/fibrosis [1, 15] was 1, the Epithelial lesion [1, 15] was 4 and the Inflammatory infiltrate [1, 15] was 2. The Vascular congestion [1, 15] was 2, the “injuries (histology)” value ([1]; group A, 0.06 mg/day (456.8 μM) P3, 7 days) was “minimal or even absent” and the “level of irritation of the vaginal wall” value ([1]; group B, 0.2 mg/day (1522.7 μM) P3, 7 days) was “minimal”. For the same molecule, the “score of vaginal irritation” value ([1]; group C, 0.4 mg/day (3045.3 μM) P3, 7 days, mice 10 and 12) was “moderate (moderate 9–11)”, the “irritation of the vaginal epithelium” value ([1]; group C, 0.4 mg/day (3045.3 μM) P3, 7 days, the other mouse (sample 11)) was “minimal” and the MIC (E. coli ATCC 10536) was > 228.4 µM. For the same molecule, the MIC (Lactobacillus plantarum) was > 228.4 µM, the MIC [2] was > 228.4 µM and the MIC [3] was > 228.4 µM. The MIC (Lactobacillus rhamnosus) was > 228.4 µM, the MIC [4] was > 228.4 µM and the MIC [5] was > 228.4 µM. For the same molecule, the MIC [6] was > 228.4 µM.
